According to US8946190B2, “Medium-chain length fatty acids, salts and triglycerides in combination with gemcitabine for treatment of pancreatic cancer” (priority 2007, dated 2015):

What was measured:
[1] = tested on: orthotopic syngeneic Panc02 pancreatic tumor; assay: Panc02 mouse orthotopic pancreatic cancer model, survival; format: in vivo, C57BL/6 mice; parameters: % Survival: concentration or dose not given beside the values; conditions: for % Survival: Table 2
Procedure: At day 0, 50 μl of 1×10^6 viable Panc02 cells per ml were injected onto the pancreas to produce orthotopic tumors in 6- to 8-week old C57BL/6 mice. Mice were then treated every day with oral administration of vehicle (negative control), or sodium decanoate and with intraperitoneal injection of gemcitabine (50 mg/kg) once a week (day 1, 8, 15, etc.).
The effect of gemcitabine and tricaprin in combination with gemcitabine in orthotopic pancreatic Panc02 cancer was determined as described in Example 3.

[2] = tested on: syngeneic Panc02 pancreas tumor; assay: Panc02 mouse pancreatic cancer model, intradermal syngeneic tumor growth; format: in vivo, C57BL/6 mice
[3] = tested on: metastatic pancreatic cancer; conditions: pancreatic cancer patients after metastasis; cited from earlier work
[4] = tested on: syngeneic Panc02 pancreas tumor; assay: Panc02 mouse pancreatic cancer model, intradermal syngeneic tumor growth; format: in vivo, C57BL/6 mice; conditions: for anticancer activity in the early phase of the treatment: given alone
Procedure: The syngeneic Panc02 is a pancreatic adenocarcinoma tumor cell line obtained from NCI (0507232). Panc02 cells are positive for Ki-Ras, p53, HerNEU and CDK. Panc02 were grown in RPMI-1640 containing 10% fetal bovine serum. At day 0, 50 μl of 7.5×10^5 viable Panc02 cells were intradermally injected to produce localized tumors in 6- to 8-week old C57BL/6 mice. The animals were then serially monitored by manual palpation for evidence of tumor. Mice were then treated every day with oral administration of vehicle (negative control), or sodium decanoate and with intraperitoneal injection of gemcitabine (50 mg/kg) at day 21, 28, 35 and 42. Mice were sacrificed between days 36 to 50. Serial tumor volume was obtained by bi-dimensional diameter measurements with calipers, using the formula 0.4 (a×b^2) where “a” was the major tumor diameter and “b” the minor perpendicular diameter. Tumors were palpable, in general, 3-5 days post-inoculation. Percentage of tumor growth is reported as the percentage of growth of the pancreatic tumor on a given day relative to that growth which is observed on the first day of treatment with medium-chain length fatty acid, or sodium salt or triglyceride or vehicle (control). T/C is defined as: Treated Tumor Growth CYO/Control Tumor Growth (%).
The effect of sodium dodecanoate and gemcitabine in pancreatic Panc02 cancer was determined as described in Example 2.

[5] = tested on: Panc02 cells; assay: In vitro cytotoxicity (MTT) on pancreatic cancer cells; format: cell-based; conditions: Mus musculus, 24 h cell culture
Procedure: This assay was performed to determine the effect of compounds of the present invention on cell cytotoxicity. Panc02 cells were incubated in presence or absence of compounds in RPMI-1640 conditioned media. After 24 hours incubation, 50 μl of 3-(4,5-dimethyl-2-thiazyl)-2,5-diphenyl-2H-tetrazolium bromide ([…]; 2 mg/ml) was added and further incubated for 4 hours. The supernatant was discarded and 100 μl of dimethylsulfoxide (DMSO) was added. Absorbance was read at 570 nm with an ELISA Tecan Sunrise plate reader. The control group consisted of cells without compounds and is referred to as 100% of viable cells. IC50 was determined using Prism software.

Nc1ccn([C@@H]2O[C@H](CO)[C@@H](O)C2(F)F)c(=O)n1 [Gemcitabine]
survival compared with mice that had received vehicle ([1]; FIG. 5): prolonged survival
Median survival ([1]; FIG. 5, gemcitabine 50 mg/kg once a week, sodium decanoate oral 200 mg/kg every day): 71 days
survival compared with mice that had received vehicle ([1]; FIG. 7): prolonged survival
Median survival ([1]; FIG. 7, gemcitabine 50 mg/kg, tricaprin oral 600 mg/kg): 53.5 days
% Survival ([1]; day 58): 86%
% Survival ([1]; day 72): 42%
% Survival ([1]; day 83): 28%
% Survival ([1]; day 87): 14%
% Survival ([1]; day 92): 0%
% Survival ([1]; day 92, listed as gemcitabine): all mice are dead
T/C ([2]; FIG. 3, gemcitabine 25 mg/kg alone): > 40
inhibition of tumor growth (p<0.05) ([2]; FIG. 3, gemcitabine 25 mg/kg, day 39): significant inhibition
T/C ([2]; FIG. 4, gemcitabine 10 mg/kg alone): no T/C<40
inhibition of tumor growth (p<0.05) ([2]; FIG. 4, gemcitabine 10 mg/kg, day 41): significant inhibition
one-year survival [3]: 18%
inhibition of tumor growth (p<0.05) ([4]; FIG. 1, gemcitabine 50 mg/kg, day 27 to 34): significant inhibition
inhibition of tumor growth (p<0.05) ([4]; FIG. 2, gemcitabine alone, day 23 to 37): significant (p<0.05) inhibition
anticancer activity in the early phase of the treatment ([4]; FIG. 3): did not display anticancer activities
anticancer activity in the early phase of the treatment ([4]; FIG. 4): did not display anticancer activities
inhibition of tumor growth (p<0.05) ([4]; FIG. 6, gemcitabine 50 mg/kg, day 44): significant inhibition
mortality ([4]; increased concentration of gemcitabine): mortality is observed

CCCCCCCCCC(=O)O [Decanoic acid]
IC50 [5]: 630 µM

CCCCCCCCCC(=O)[O-].[Na+] [Sodium decanoate]
IC50 [5]: 520 µM
inhibition of tumor growth (p<0.05) ([4]; FIG. 1, sodium decanoate oral 100 mg/kg, day 23 to 44): significant inhibition
tumor growth inhibition compared to control (p<0.05) ([4]; FIG. 2, sodium decanoate 400 mg/kg, day 23 to 37): significant
inhibition of tumor growth (p<0.05) ([4]; FIG. 2, sodium decanoate oral 100, 200 and 400 mg/kg): significant (p<0.05) inhibition of the tumor growth in a dose dependent fashion

CCCCCCCCCCCC(=O)[O-].[Na+] [Sodium dodecanoate]
IC50 [5]: 150 µM
inhibition of tumor growth (p<0.05) ([4]; FIG. 6, sodium dodecanoate oral 200 mg/kg, day 44): significant inhibition

CCCCCCCCCC(=O)[O-].[Na+] [PBI-1402]
anticancer activity in the early phase of the treatment ([4]; FIG. 3): did not display anticancer activities
anticancer activity in the early phase of the treatment ([4]; FIG. 4): did not display anticancer activities
